US6210917A, “Method for suppressing multiple drug resistance in cancer cells” (priority 1997, dated 2001)

Experiments:
[1] = test system: MTAse competent A427 cells; assay: growth restoration by MTAse substrates after L-alanosine (FIG. 3); type: cell-based
[2] = test system: MTAse competent MOLT-4 cells; assay: as above; type: cell-based
[3] = test system: MTAse deficient A549 cells; assay: as above; type: cell-based
[4] = test system: MTAse deficient CEM cells; assay: as above; type: cell-based
MV522Q6 cells = assay: growth of MDR cells by reduction of a tetrazolium dye (FIG. 1A); type: cell-based, human; conditions: 10 μM; for sensitivity of the resistant cell line to chemotherapy: MV522Q6 compared with MV522, three days
Procedure: MV522 is a human cancer cell line; MV522Q6 is a variant of the cell line with MDR. Each cell line was grown in a monolayer as and contacted with 10 μM of a chemotherapeutic agent and/or L-alanosine (as shown in FIGS. 1A and 1B). Growth, or the lack thereof, was measured in each population of cells by reduction of a tetrazolium dye after three days in culture.
FIG. 1A is a graph depicting the effect of L-alanosine and different chemotherapeutic agents (vinblastine and taxol) on a MDR cancer cell line (MV522Q6). FIG. 1B is a graph depicting the effect of the same drugs on the cell line before acquisition of resistance (MV522). […] However, the adenine synthesis inhibitor L-alanosine is nearly 10 times as potent in the resistant cell line than the other agents tested.

MES-SA/Dx5 cells [5] = assay: growth of MES-SA/Dx5 drug resistant cells with L-alanosine and other agents; type: cell-based; conditions: data not shown
[6] = test system: MTAse deficient H292 cells; assay: proliferation in presence of L-alanosine with MTA or adenine added (FIG. 2); type: cell-based; conditions: L-alanosine 40 μM
A549 NSCLC cells = assay: tumor xenograft in nude mice, MTAP-deficient A549 cells (FIG. 5); type: in vivo, Balb/c athymic nude mice; conditions: i.p. every 12 hours; 15 mg/kg per injection 7 days then 22.5 mg/kg 5 days
Procedure: (§1) 10^7 A549 or A427 NSCLC cells were injected subcutaneously into 6-week old Balb/c athymic nude mice. When tumors had reached approximately 0.4 cm diameter, treatment was begun with L-alanosine or saline by intraperitoneal injection every 12 hours. Mice received 15 mg/kg per injection for 7 days then 22.5 mg/kg for 5 days. Tumor size was measured as the product of perpendicular diameters. The results for treated (n=6 [sample size] for each cell type) vs. control (n=4 [sample size] for each cell type) mice are shown in FIG. 5.

A427 NSCLC cells = assay: tumor xenograft in nude mice, MTAP-positive A427 cells (FIG. 5); type: in vivo, Balb/c athymic nude mice; conditions: i.p. every 12 hours; 15 mg/kg per injection 7 days then 22.5 mg/kg 5 days
Procedure: as §1

[7] = toxicity / body weight of nude mice in xenograft study; type: in vivo, Balb/c athymic nude mice
Procedure: 10^7 A549 or A427 NSCLC cells were injected subcutaneously into 6-week old Balb/c athymic nude mice. When tumors had reached approximately 0.4 cm diameter, treatment was begun with L-alanosine or saline by intraperitoneal injection every 12 hours.
Mice received 15 mg/kg per injection for 7 days then 22.5 mg/kg for 5 days. Tumor size was measured as the product of perpendicular diameters. The results for treated (n=6 [sample size] for each cell type) vs. control (n=4 [sample size] for each cell type) mice are shown in FIG. 5.

human cancers = conditions: cited from earlier work
melanoma = conditions: Phase II, melanoma patients; cited from earlier work
breast cancer = breast cancer patients; cited from earlier work
MTAse competent cancers = conditions: cited from earlier work
[8] = humans, intravenous, cited from earlier work
[9] = cited from earlier work
MES-SA/Dx5 cells [10] = conditions: cited from earlier work

C[C@H]1O[C@@H](n2cnc3c(N)ncnc32)[C@H](O)[C@@H]1O [5'-deoxyadenosine]
growth restoration [1]: growth restoration
growth restoration [2]: growth restoration
growth restoration [3]: remained growth inhibited
growth restoration [4]: remained growth inhibited

N[C@@H](CN(O)N=O)C(=O)O [L-alanosine]
potency of L-alanosine in the resistant cell line relative to the other agents tested (MV522Q6 cells; MV522Q6 (MDR), three days in culture): ~10 times
potency in the resistant cell line vs the non-resistant cell line (MV522Q6 cells; MV522Q6 vs MV522): as, if not more, potent in the resistant cell line than in the non-resistant cell line
effect on drug resistant cell line vs other agents tested (MES-SA/Dx5 cells [5]): significantly more affected by L-alanosine than by the other agents tested
inability to proliferate in the presence of L-alanosine despite MTA ([6]; H292 compared with Calu-6, with MTA): selective inability of MTAse deficient NSCLC cells to proliferate
size of well-established MTAP-deficient tumors (A549 NSCLC cells): decrease in the size
effect on growth of MTAP-positive cells (A427 NSCLC cells): no effect on the growth
toxicity ([7]; 15 and 22.5 mg/kg per injection, i.p. every 12 hours): No toxicity was evident
body weight ([7]; throughout testing): stable weights
overall response rate (human cancers; Phase II studies, Creagan et al.): 4%
efficacy for treatment of human cancers (human cancers; Tyagi and Cooney 1984): little encouragement
therapeutic response (melanoma): little therapeutic response observed
objective responses (breast cancer): no objective responses observed
success in clinical trials (MTAse competent cancers): no appreciable success
plasma clearance [8]: biphasic
t1/2α ([8]; plasma, biphasic, approximate): ~14 min
t1/2β ([8]; plasma, biphasic, approximate): ~99 min
dose limiting toxicity ([9]; continuous infusion about 125 mg/m^2 for 5 days, adults, acute non-lymphoblastic leukemia, phase II): mucositis
toxicity after multiple bolus dosing ([9]; multiple bolus dosing): Stomatitis and esophagitis
dose-limiting toxicity ([9]; prior clinical trials): renal toxicity, stomatitis, esophagitis
reactions with lesser frequency ([9]; prior clinical trials): myelosuppression, headache, nausea and hypo- or hypertension
dose at which renal toxicity occurred ([9]; single bolus dosing): above 4 g/m^2 body weight
dose at which two pediatric patients suffered liver failure ([9]; two pediatric patients, separate doses): about 350 mg/m^2 body weight per day

Nc1ncnc2nc[nH]c12 [adenine]
proliferation of control cultures containing adenine ([6]; control cultures with adenine (Calu-6 / H292)): proliferate despite L-alanosine

CC(=O)O[C@H]1C(=O)[C@@]2(C)[C@H]([C@H](OC(=O)c3ccccc3)[C@]3(O)C[C@H](OC(=O)[C@H](O)[C@@H](NC(=O)c4ccccc4)c4ccccc4)C(C)=C1C3(C)C)[C@]1(OC(C)=O)CO[C@@H]1C[C@@H]2O [taxol]
sensitivity of the resistant cell line to chemotherapy (MV522Q6 cells): greatly reduced
resistance level to chemotherapeutic agents (MES-SA/Dx5 cells [10]): highly resistant

CC[C@]1(O)C[C@@H]2CN(CCc3c([nH]c4ccccc34)[C@@](C(=O)OC)(c3cc4c(cc3OC)N(C)[C@H]3[C@@](O)(C(=O)OC)[C@H](OC(C)=O)[C@]5(CC)C=CCN6CC[C@]43[C@@H]65)C2)C1 [vinblastine]
sensitivity of the resistant cell line to chemotherapy (MV522Q6 cells): greatly reduced
resistance level to chemotherapeutic agents (MES-SA/Dx5 cells [10]): highly resistant
